Results published in the Kinase Knowledgebase extract (Sharma et al. 2016).
Several values for one entry are separate records, joined by “and”; a condition that tells them apart may be missing. Equal entries are not always repeated.

molecular target: PIK3CG (UniProt P48736); assay: PIK3-gamma Enzyme Assay
Sequence (P48736 whole entry, looked up): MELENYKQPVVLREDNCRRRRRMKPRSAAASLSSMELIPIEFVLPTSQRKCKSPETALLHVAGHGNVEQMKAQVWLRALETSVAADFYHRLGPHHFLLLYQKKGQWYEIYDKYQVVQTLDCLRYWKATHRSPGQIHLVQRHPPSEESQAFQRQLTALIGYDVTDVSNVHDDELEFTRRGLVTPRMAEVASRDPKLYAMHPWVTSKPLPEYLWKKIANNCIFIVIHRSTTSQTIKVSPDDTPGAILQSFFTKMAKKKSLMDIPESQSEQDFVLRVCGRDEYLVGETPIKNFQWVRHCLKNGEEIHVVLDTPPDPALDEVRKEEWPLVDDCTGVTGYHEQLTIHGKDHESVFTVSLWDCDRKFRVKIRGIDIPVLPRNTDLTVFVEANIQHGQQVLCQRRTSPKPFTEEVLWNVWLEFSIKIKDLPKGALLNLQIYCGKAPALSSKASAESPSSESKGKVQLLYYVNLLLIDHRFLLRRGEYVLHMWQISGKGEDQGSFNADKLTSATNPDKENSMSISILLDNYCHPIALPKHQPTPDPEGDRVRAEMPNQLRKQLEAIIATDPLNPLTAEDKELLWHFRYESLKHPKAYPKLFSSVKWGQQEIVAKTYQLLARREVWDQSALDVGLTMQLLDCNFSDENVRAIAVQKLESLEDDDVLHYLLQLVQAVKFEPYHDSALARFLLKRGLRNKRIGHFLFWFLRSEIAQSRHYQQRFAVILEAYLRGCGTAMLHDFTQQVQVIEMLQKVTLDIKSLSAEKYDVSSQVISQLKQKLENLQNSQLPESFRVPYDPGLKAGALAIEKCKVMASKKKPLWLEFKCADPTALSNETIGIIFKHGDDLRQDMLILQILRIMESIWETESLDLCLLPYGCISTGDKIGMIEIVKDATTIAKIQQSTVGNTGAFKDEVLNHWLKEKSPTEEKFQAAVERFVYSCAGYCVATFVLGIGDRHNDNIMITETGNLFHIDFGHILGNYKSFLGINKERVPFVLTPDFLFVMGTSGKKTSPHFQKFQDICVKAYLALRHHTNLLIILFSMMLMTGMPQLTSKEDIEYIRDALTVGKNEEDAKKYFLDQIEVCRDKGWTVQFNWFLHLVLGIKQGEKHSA

IC50 [nM]	SMILES
2000	O=c1cc(N2CCOCC2)[nH]c2c(OCc3ccccc3)cccc12

molecular target: PIK3CB;PIK3CA (UniProt P42338); assay: PI3-Kinase alpha/beta Inhibition

IC50	SMILES
100 nM	O=c1cc(N2CCOCC2)[nH]c2c(OCc3ccccc3)cccc12
1000 nM	Cc1cc(NCc2ccc(Cl)cc2)c2nc(N3CCOCC3)cc(=O)n2c1
1000 nM	O=c1cc(N2CCOCC2)[nH]c2c(Cc3ccc(F)cc3)cccc12
25000 nM	O=c1cc(N2CCOCC2)oc2c(O)cccc12
500 nM	O=c1cc(N2CCOCC2)nc2c(OCc3cccc(Cl)c3)cccn12
50 nM	Cc1cc(CNc2ccccc2)c2nc(N3CCOCC3)cc(=O)n2c1
500 nM	Cc1ccc(Oc2cccc3c(=O)cc(N4CCOCC4)[nH]c23)cc1
2000 nM	O=c1cc(N2CCOCC2)oc2cc(OCc3cccnc3)ccc12
100 nM	O=c1cc(N2CCOCC2)oc2c(Cc3ccccc3)cccc12
50 nM	O=c1cc(N2CCOCC2)[nH]c2c(Sc3ccccc3)cccc12
200 nM	O=c1cc(N2CCOCC2)oc2c(-c3ccccc3C(F)(F)F)cccc12
500 nM	O=c1cc(N2CCOCC2)nc2c(OCc3ccccc3)cccn12
5000 nM and 10000 nM and 2000 nM	Cc1c(Oc2ccccc2)ccc2c(=O)cc(N3CCOCC3)oc12
50 nM	Cc1cc(NCc2ccccc2Cl)c2nc(N3CCOCC3)cc(=O)n2c1
1000 nM	Cc1ccc(Oc2cc(C)cn3c(=O)cc(N4CCOCC4)nc23)cc1
1000 nM	Cc1cc(-c2ccsc2)c2nc(N3CCOCC3)cc(=O)n2c1
10000 nM	O=c1cc(N2CCOCC2)oc2cc(/C=C/c3ccccc3)ccc12
200 nM	Cc1cc(Nc2ccc(F)cc2C)c2nc(N3CCOCC3)cc(=O)n2c1
1000 nM	O=c1cc(N2CCOCC2)nc2c(Oc3ccccc3)cccn12
10 nM	Cc1cc(CNc2ccc(F)cc2C)c2nc(N3CCOCC3)cc(=O)n2c1
1000 nM	COc1cccc(COc2cccn3c(=O)cc(N4CCOCC4)nc23)c1
10000 nM	Cc1c(OCc2ccccc2)ccc2c(=O)cc(N3CCOCC3)oc12

IC50	SMILES
100 nM	Cc1cc(Nc2ccc(O)cc2C)c2nc(N3CCOCC3)cc(=O)n2c1
2000 nM	Cc1cc(Nc2ccccc2OCCN(C)C)c2nc(N3CCOCC3)cc(=O)n2c1
50 nM	Cc1cc(NCc2ccccc2)c2nc(N3CCOCC3)cc(=O)n2c1
1500 nM	O=c1cc(N2CCOCC2)nc2c(Cc3ccccc3)cccn12
5000 nM	Cc1cc(Nc2ccccc2C(F)(F)F)c2nc(N3CCOCC3)cc(=O)n2c1
500 nM	O=c1cc(N2CCOCC2)oc2c(-c3ccccc3Cl)cccc12
2000 nM	Cc1ccc(Cc2cccc3c(=O)cc(N4CCOCC4)[nH]c23)cc1
1000 nM	Cc1ccc(S(=O)(=O)Oc2cccc3c(=O)cc(N4CCOCC4)[nH]c23)cc1
100 nM	O=c1cc(N2CCOCC2)[nH]c2c(Oc3ccccc3)cccc12
200 nM	Cc1cc(Nc2ccccc2O)c2nc(N3CCOCC3)cc(=O)n2c1
200 nM	Cc1cc(N[C@H](C)c2ccccc2)c2nc(N3CCOCC3)cc(=O)n2c1
1000 nM	O=c1cc(N2CCOCC2)oc2c(OCc3cccnc3)cccc12
50 nM	O=c1cc(N2CCOCC2)[nH]c2c(Oc3ccc(F)cc3)cccc12
2000 nM	Cc1cc(-c2ccccc2C(F)(F)F)c2nc(N3CCOCC3)cc(=O)n2c1
500 nM	O=C(O)c1cccc(Oc2cccc3c(=O)cc(N4CCOCC4)[nH]c23)c1
500 nM	Cc1cc(NCc2ccncc2)c2nc(N3CCOCC3)cc(=O)n2c1
9800 nM	Cc1cc(-c2ccccc2)c2nc(N3CCOCC3)cc(=O)n2c1
1000 nM	Cc1cc(N[C@@H](C)c2ccccc2)c2nc(N3CCOCC3)cc(=O)n2c1
100 nM	Cc1cc(Nc2ccc(O)cc2)c2nc(N3CCOCC3)cc(=O)n2c1
750 nM	Cc1cc(Oc2cccn3c(=O)cc(N4CCOCC4)nc23)ccc1F
1000 nM	Cc1cc(Nc2ccncc2)c2nc(N3CCOCC3)cc(=O)n2c1
11100 nM	Cc1cccn2c(=O)cc(N3CCOCC3)nc12

IC50	SMILES
1000 nM	Cc1cc(Cl)ccc1Oc1cccc2c(=O)cc(N3CCOCC3)[nH]c12
20000 nM	Cc1cc(C2CCN(C)C2=O)c2nc(N3CCOCC3)cc(=O)n2c1 (configuration not stated)
1000 nM	Cc1cc(NCC2CCNCC2)c2nc(N3CCOCC3)cc(=O)n2c1
10500 nM	O=c1cc(N2CCOCC2)nc2c(-c3ccccc3)cccn12
50 nM	Cc1ccccc1Oc1cccc2c(=O)cc(N3CCOCC3)[nH]c12
1000 nM	O=c1cc(N2CCOCC2)oc2c(-c3ccc(F)cc3)cccc12
500 nM	COC(=O)c1cccc(Oc2cccc3c(=O)cc(N4CCOCC4)[nH]c23)c1
20 nM	Cc1cc(F)ccc1Oc1cccc2c(=O)cc(N3CCOCC3)[nH]c12
10000 nM	Cc1cc(Nc2ncccc2C)c2nc(N3CCOCC3)cc(=O)n2c1
100 nM and 50 nM	O=c1cc(N2CCOCC2)oc2c(Oc3ccccc3)cccc12
1000 nM	Cc1cc(CCc2ccncc2)c2nc(N3CCOCC3)cc(=O)n2c1
50 nM	COc1ccccc1CNc1cc(C)cn2c(=O)cc(N3CCOCC3)nc12
1000 nM	Cc1cc(Nc2ccc(Cl)cc2)c2nc(N3CCOCC3)cc(=O)n2c1
2000 nM	O=c1cc(N2CCOCC2)[nH]c2c(Cc3ccccc3)cccc12
500 nM	Cc1cc(NCc2ccccn2)c2nc(N3CCOCC3)cc(=O)n2c1
10000 nM	O=c1cc(N2CCOCC2)nc2c(OCc3cccnc3)cccn12
100 to 150 nM	Cc1cc(Oc2cccc3c(=O)cc(N4CCOCC4)oc23)ccc1F
150 nM	O=c1cc(N2CCOCC2)[nH]c2c(Oc3ccccc3F)cccc12
7500 nM	CC(C)(C)c1ccc(COc2cccn3c(=O)cc(N4CCOCC4)nc23)cc1
50 nM	Cc1cccc(Oc2cccc3c(=O)cc(N4CCOCC4)[nH]c23)c1
10000 nM	O=c1cc(N2CCOCC2)nc2c(OCc3ccccn3)cccn12
2000 nM	Cc1ccccc1-c1cccc2c(=O)cc(N3CCOCC3)oc12
